The results in this text go back to DBAASP.

Some test systems named below: Candida albicans; Staphylococcus aureus; Escherichia coli; Escherichia coli UB1005.
Holding throughout (test): ≥ marks a high value that may be exact or a test limit, other limits are often not marked, values filed in µg/mL are converted to µM
The test system of experiment [1] is Staphylococcus aureus KCTC 1621.
Experiment [2] relates to Escherichia coli KCTC 1682.
The test system of experiment [3] is Staphylococcus epidermidis KCTC 1917.
In experiment [4] the test system is Pseudomonas aeruginosa KCTC 1637.
In experiment [5] the test system is Salmonella typhimurium KCTC 1926.
The test system of experiment [6] is Bacillus subtilis KCTC 3068.
In experiment [7] the test system is Staphylococcus aureus NCTC 8325.
The test system of experiment [8] is Staphylococcus epidermidis ATCC 12228.
In experiment [9] the test system is Staphylococcus aureus ATCC 43300.
In experiment [10] the test system is Staphylococcus aureus ATCC 25923.
The subject of experiment [11] is Staphylococcus aureus ATCC 29213.
Experiment [12] relates to Pseudomonas aeruginosa ATCC 27853.
Experiment [13] has as its system Salmonella enterica subsp. enterica serovar Typhimurium C77-31.
In experiment [14] the test system is Salmonella enterica subsp. enterica serovar Typhimurium ATCC 14028.
Experiment [15] concerns Escherichia coli ATCC 25922.
The test system of experiment [16] is Klebsiella pneumoniae ATCC 700603.
Experiment [17] deals with Bacillus subtilis ATCC 6633.

Values after ≈ are worked out from the molar mass of the structure shown. Some results are limits rather than exact numbers.

On to `CC[C@H](C)[C@H](N)C(=O)NCC(=O)N[C@@H](CCCCN)C(=O)N[C@@H](CCC(=O)O)C(=O)N[C@@H](Cc1ccccc1)C(=O)N[C@@H](CCCCN)C(=O)N[C@@H](CCCN=C(N)N)C(=O)N[C@H](C(=O)N[C@H](C(=O)N[C@@H](CCC(N)=O)C(=O)N[C@@H](CCCN=C(N)N)C(=O)N[C@H](C(=O)N[C@@H](CCCCN)C(=O)N[C@@H](CC(=O)O)C(=O)N[C@@H](Cc1ccccc1)C(=O)N[C@@H](CC(C)C)C(=O)N[C@@H](CCCN=C(N)N)C(=O)N[C@@H](CC(N)=O)C(=O)N[C@@H](CC(C)C)C(=O)O)[C@@H](C)CC)C(C)C)[C@@H](C)CC` [IGKEFKRIVQRIKDFLRNL], for which the MIC in [1] is 4 µM (≈ 9.5 µg/mL); in experiment [2] it was 8 µM (≈ 19 µg/mL); in experiment [3] it was 4 µM (≈ 9.5 µg/mL); in experiment [4] it was 16 µM (≈ 38 µg/mL); in experiment [5] it was 8 µM (≈ 19 µg/mL); in experiment [6], 4 µM (≈ 9.5 µg/mL).

As for `CC[C@H](C)[C@@H]1NC(=O)[C@H](C)NC(=O)[C@@H](NC(=O)[C@H](Cc2ccccc2)NC(=O)[C@@H](NC(=O)[C@H](CCCCN)NC(=O)[C@@H]2CCCN2C(=O)[C@H](CC(C)C)NC(=O)[C@H](Cc2ccccc2)NC(=O)[C@H](CCCCN)NC(=O)[C@H](C)NC(=O)[C@H](C)NC(=O)[C@@H](NC(=O)CNC(=O)[C@H](C)NC(=O)[C@@H](NC(=O)[C@H](Cc2ccccc2)NC(=O)[C@@H]2CCCN2C(=O)[C@H](CC(C)C)NC(=O)[C@@H](N)Cc2ccccc2)[C@@H](C)CC)C(C)C)[C@@H](C)CC)CSSC[C@@H](C(=O)O)NC(=O)[C@H](CCCCN)NC(=O)[C@H](CCCCN)NC(=O)[C@H](CO)NC1=O` [FLPFIAGVAAKFLPKIFCAISKKC], the MIC in [7] was 13 µM (≈ 33.9 µg/mL).

For `CC[C@H](C)[C@H](NC(=O)[C@H](CCCCN)NC(=O)[C@H](CS)NC(=O)[C@H](C)NC(=O)[C@@H](NC(=O)[C@H](Cc1ccccc1)NC(=O)[C@H](CCC(=O)O)NC(=O)[C@H](CC(C)C)NC(=O)[C@H](CCC(=O)O)NC(=O)[C@@H](NC(=O)[C@H](CCCCN)NC(=O)[C@H](CCC(=O)O)NC(=O)[C@H](CC(C)C)NC(=O)[C@H](CC(N)=O)NC(=O)[C@H](CCCCN)NC(=O)[C@H](CC(C)C)NC(=O)[C@@H](NC(=O)[C@H](CO)NC(=O)[C@H](CC(C)C)NC(=O)[C@H](CCSC)NC(=O)[C@@H](N)CO)C(C)C)C(C)C)C(C)C)C(=O)N[C@@H](CC(N)=O)C(=O)N[C@@H](CCCCN)C(=O)N[C@@H](CCC(N)=O)C(=O)N[C@@H](CS)C(=O)O` [SMLSVLKNLEKVELEFVACKINKQC], the MIC with Candida albicans, against Staphylococcus aureus and in the experiment with Escherichia coli was greater than 200 µM throughout.

`CC(C)C[C@H](NC(=O)[C@H](CCCCN)NC(=O)[C@H](CCCCN)NC(=O)[C@H](Cc1c[nH]c2ccccc12)NC(=O)[C@H](CC(C)C)NC(=O)[C@H](CCCCN)NC(=O)[C@H](CCCCN)NC(=O)[C@H](Cc1c[nH]c2ccccc12)NC(=O)[C@H](CCCCN)NC(=O)[C@H](CCCCN)NC(=O)[C@H](CCCN=C(N)N)NC(=O)[C@H](Cc1c[nH]c2ccccc12)NC(=O)[C@H](CCCN=C(N)N)NC(=O)[C@H](CCCCN)NC(=O)[C@H](Cc1c[nH]c2ccccc12)NC(=O)[C@H](CCCN=C(N)N)NC(=O)CN)C(=O)N[C@@H](CO)C(N)=O` [GRWKRWRKKWKKLWKKLS]: the MIC is 4 µM (≈ 9.99 µg/mL) in experiment [1]; 4 µM (≈ 9.99 µg/mL) in experiment [2]; 8 µM (≈ 20 µg/mL) in [3]; 4 µM (≈ 9.99 µg/mL) in [4]; 2 µM (≈ 5 µg/mL) in experiment [5]; 2 µM (≈ 5 µg/mL) in [6].

Regarding `CC[C@H](C)[C@H](NC(=O)[C@H](CCCCN)NC(=O)[C@H](CCCCN)NC(=O)[C@H](CC(C)C)NC(=O)[C@@H](N)CCCCN)C(=O)N[C@@H](Cc1c[nH]c2ccccc12)C(=O)N[C@@H](Cc1c[nH]c2ccccc12)C(=O)N[C@H](C(=O)N[C@@H](CCCCN)C(=O)N[C@H](C(=O)N[C@@H](CCCCN)C(=O)N[C@@H](CCCCN)C(N)=O)C(C)C)[C@@H](C)CC` [KLKKIWWIKVKK], the MIC is 3.91 µM (≈ 6.25 µg/mL) in experiment [1]; 7.82 µM (≈ 12.5 µg/mL) in [2]; 3.91 µM (≈ 6.25 µg/mL) in experiment [3]; 3.91 µM (≈ 6.25 µg/mL) in [4]; 0.976 µM (≈ 1.56 µg/mL) in experiment [5]; 7.82 µM (≈ 12.5 µg/mL) in [6].

For `CC[C@H](C)[C@H](N)C(=O)N[C@@H](CCCN=C(N)N)C(=O)N1CCC[C@H]1C(=O)N[C@H](C(=O)N[C@@H](CCCN=C(N)N)C(=O)N1CCC[C@H]1C(=O)O)[C@@H](C)CC` [IRPIRP], the MIC in [8] was greater than 128 µM; in experiment [9] it was greater than 128 µM; in [10], greater than 128 µM; in experiment [11], greater than 128 µM; in [12], greater than 128 µM; in experiment [13], no less than 128 µM. Moreover, the MIC was greater than 128 µM in experiment [14], greater than 128 µM in experiment [15] and no less than 128 µM in the experiment on Escherichia coli UB1005.

As for `CC(C)C[C@H](NC(=O)[C@H](CC(C)C)NC(=O)[C@H](CCCCN)NC(=O)[C@H](CC(C)C)NC(=O)[C@H](CC(C)C)NC(=O)[C@H](CCCCN)NC(=O)[C@H](CCCCN)NC(=O)[C@H](CC(C)C)NC(=O)[C@H](CC(C)C)NC(=O)[C@H](CCCCN)NC(=O)[C@H](CCCCN)NC(=O)[C@H](Cc1c[nH]c2ccccc12)NC(=O)[C@@H](N)CCCCN)C(N)=O` [KWKKLLKKLLKLL], the MIC is 8 µM (≈ 13.2 µg/mL) in experiment [1]; 8 µM (≈ 13.2 µg/mL) in [2]; 4 µM (≈ 6.61 µg/mL) in experiment [3]; 8 µM (≈ 13.2 µg/mL) in experiment [4]; 8 µM (≈ 13.2 µg/mL) in [5]; 4 µM (≈ 6.61 µg/mL) in experiment [6].

`CC[C@H](C)[C@H](NC(=O)[C@H](CCCN=C(N)N)NC(=O)CN)C(=O)N[C@@H](CCCCN)C(=O)N[C@@H](CCCN=C(N)N)C(=O)N[C@H](C(=O)N[C@@H](CCCN=C(N)N)C(=O)N[C@@H](CCCCN)C(=O)N[C@@H](CCCCN)C(=O)N[C@H](C(=O)N[C@@H](CCCCN)C(=O)N[C@@H](CCCCN)C(=O)N[C@@H](CC(C)C)C(=O)N[C@H](C(=O)N[C@@H](CCCCN)C(=O)N[C@@H](CCCCN)C(=O)N[C@@H](CC(C)C)C(=O)N[C@@H](CO)C(N)=O)[C@@H](C)CC)[C@@H](C)CC)[C@@H](C)CC` [GRIKRIRKKIKKLIKKLS]: the MIC in experiment [1] amounted to 4 µM (≈ 8.82 µg/mL); in experiment [2], 4 µM (≈ 8.82 µg/mL); in [3] it was 8 µM (≈ 17.6 µg/mL); in experiment [4] it was 4 µM (≈ 8.82 µg/mL); in experiment [5], 2 µM (≈ 4.41 µg/mL); in experiment [6] it was 4 µM (≈ 8.82 µg/mL).

As for `CC[C@H](C)[C@H](NC(=O)[C@@H](NC(=O)[C@@H]1CCCN1C(=O)[C@H](CC(C)C)NC(=O)[C@@H](NC(=O)[C@@H](N)CO)[C@@H](C)CC)[C@@H](C)O)C(=O)N[C@H](C(=O)N[C@@H](CO)C(=O)N[C@@H](Cc1ccccc1)C(=O)N[C@@H](CC(C)C)C(=O)N[C@H](C(=O)N[C@@H](CCCCN)C(=O)N[C@@H](Cc1ccccc1)C(=O)N[C@@H](CC(C)C)C(N)=O)[C@@H](C)O)C(C)C` [SILPTIVSFLTKFL], the MIC in experiment [7] came out at 25 µM (≈ 39.4 µg/mL).

As to `CC(=O)N[C@@H](Cc1ccccc1)C(=O)N[C@@H](CCCCN)C(=O)N[C@@H](CC(C)C)C(=O)N[C@@H](CCCCN)C(=O)N[C@@H](CC(C)C)C(=O)N[C@@H](CCCCN)C(=O)N[C@@H](Cc1ccccc1)C(=O)N[C@@H](CO)C(=O)N[C@@H](CC(N)=O)C(=O)N[C@@H](CCCCN)C(=O)N[C@@H](CC(C)C)C(=O)N[C@@H](CCCCN)C(=O)N[C@@H](Cc1c[nH]c2ccccc12)C(=O)N[C@@H](CCCCN)C(=O)N[C@@H](Cc1c[nH]c2ccccc12)C(N)=O` [FKLKLKFSNKLKWKW], the MIC in [8] is 12.5 µM (≈ 25.4 µg/mL); in experiment [16], 25 µM (≈ 50.9 µg/mL); in experiment [10] it was 25 µM (≈ 50.9 µg/mL); in experiment [12], 12.5 µM (≈ 25.4 µg/mL); in experiment [15], 12.5 µM (≈ 25.4 µg/mL); in experiment [17], 3.2 µM (≈ 6.51 µg/mL).

As usually defined, the MIC is the least concentration at which growth counts as inhibited.
